Experimental data reported in patent US11312705B2, “Heteroaryl[4,3-C]pyrimidine-5-amine derivative, preparation method therefor, and medical uses thereof” (Jiangsu Hengrui Medicine Co., Ltd., priority 2017, dated 2022).

Tests used:
Type in all cases: cell-based
[1] = target: adenosine A1 receptor (A1R) (Homo sapiens (Human), UniProt P30542); test: Inhibition of adenosine A1 receptor cAMP signaling pathway (HTRF cAMP, CHO-K1/A1R cells); details: Table 2; for IC50: CHO-K1/A1R cells, forskolin 10 μM, CPA 10 nM, cAMP HTRF; for IC50 ratio (A1R/A2aR): selectivity A1R over A2aR
Source text: (§1) Test Example 1. Determination of the inhibition activity of the compounds of the present invention on the adenosine A2a receptor (A2aR) cAMP signaling pathway, the adenosine A2b receptor (A2bR) cAMP signaling pathway, the adenosine A1 receptor (A1R) cAMP signaling pathway and the adenosine A3 receptor (A3R) cAMP signaling pathway.
(§2) The inhibition activity of the compounds of the present invention on the adenosine A2a receptor cAMP signaling pathway, the adenosine A2b receptor cAMP signaling pathway, the adenosine A1 receptor cAMP signaling pathway and the adenosine A3 receptor cAMP signaling pathway was determined by the following method. The experimental method is briefly described as follows:
2.2 Adenosine A1 receptor
(§3) CHO-K1/A1R cells were cultured in DMEM/F12 medium containing 10% fetal bovine serum and 1 mg/ml G418. The cells were digested with the cell separation buffer during the experiment. The cells were then resuspended in the balanced salt buffer containing 20 mM HEPES and 0.1% bovine serum albumin and counted, and the cell density was adjusted to 5×10^5 cells/ml. In the 384-well plate, each well was added with 12.5 μl of cell suspension, and 6.25 μl of test compound (4× concentration) formulated with the balanced salt buffer containing 20 mM HEPES, 0.1% bovine serum albumin, 54 μM rolipram and 2.7 U/ml adenosine deaminase, and the plate was incubated at room temperature for 30 minutes. Each well was then added with 6.25 μl of forskolin and N6-cyclopentyladenosine (4× concentration) formulated with the balanced salt buffer containing 20 mM HEPES, 0.1% bovine serum albumin, 54 μM rolipram and 2.7 U/ml adenosine deaminase, and the plate was incubated at room temperature for 30 minutes. The final concentrations of the compounds were: 100000, 10000, 1000, 100, 10, 1, 0.1 and 0 nM. The final concentration of forskolin was 10 μM. The final concentration of CPA was 10 nM. Intracellular cAMP concentration was detected with the cAMP dynamic 2 kit. cAMP-d2 and Anti-cAMP-Eu-Cryptate were diluted respectively with the cAMP lysis buffer at a ratio of 1:4. Each well was added with 12.5 μl of diluted cAMP-d2, followed by addition of 12.5 μl of diluted Anti-cAMP-Eu-Cryptate, and the plate was incubated at room temperature in the dark for 1 hour. The HTRF signal values were read by the PHERAstar multi-function microplate reader.

[2] = target: adenosine A2a receptor (A2aR) (Homo sapiens (Human), UniProt P29274); test: Inhibition of adenosine A2a receptor cAMP signaling pathway (HTRF cAMP, CHO-K1/A2aR cells)
Source text: as §1, §2
2.1 Adenosine A2a Receptor
CHO-K1/A2aR cells were cultured in DMEM/F12 medium containing 10% fetal bovine serum and 800 μg/ml bleomycin. The cells were digested with the cell separation buffer during the experiment. The cells were resuspended in the balanced salt buffer containing 20 mM HEPES and 0.1% bovine serum albumin and counted, and the cell density was adjusted to 10^6 cells/ml. In the 384-well plate, each well was added with 5 μl of cell suspension, and 2.5 μl of test compound (4× concentration) formulated with the balanced salt buffer containing 20 mM HEPES, 0.1% bovine serum albumin, 54 μM rolipram and 2.7 U/ml adenosine deaminase, and the plate was incubated at room temperature for 30 minutes. Each well was then added with 2.5 μl of […] (4× concentration) formulated with the balanced salt buffer containing 20 mM HEPES, 0.1% bovine serum albumin, 54 μM rolipram and 2.7 U/ml adenosine deaminase, and the plate was incubated at room temperature for 30 minutes. The final concentrations of the compounds were: 10000, 2000, 400, 80, 16, 3.2, 0.64, 0.128, 0.0256, 0.00512, and 0.001024 nM. The final concentration of […] was 20 nM. Intracellular cAMP concentration was detected with the cAMP dynamic 2 kit. cAMP-d2 and Anti-cAMP-Eu-Cryptate were diluted respectively with the cAMP lysis buffer at a ratio of 1:4. Each well was added with 5 μl of diluted cAMP-d2, followed by addition of 5 μl of diluted Anti-cAMP-Eu-Cryptate, and the plate was incubated at room temperature in the dark for 1 hour. The HTRF signal values were read by the PHERAstar multi-function microplate reader.

[3] = target: adenosine A3 receptor (A3R) (Homo sapiens (Human), UniProt P0DMS8); test: Inhibition of adenosine A3 receptor cAMP signaling pathway (HTRF cAMP, CHO-K1/A3R cells); details: Table 2; for IC50: CHO-K1/A3R cells, forskolin 10 μM, 2Cl-IB-MECA 5 nM, cAMP HTRF
Source text: as §1, §2
2.3 Adenosine A3 receptor
as §3, with “CHO-K1/A3R cells were” for “CHO-K1/A1R cells were”, “serum and 10 μg/ml puromycin. The cells” for “serum and 1 mg/ml G418. The cells”, “cells were resuspended in” for “cells were then resuspended in”, “forskolin and 2Cl-IB-MECA (4× concentration)” for “forskolin and N6-cyclopentyladenosine (4× concentration)”, “concentration of 2Cl-IB-MECA was 5” for “concentration of CPA was 10”, “2Cl-IB-MECA was 5 nM. Intracellular” for “CPA was 10 nM. Intracellular”

[4] = target: adenosine A2b receptor (A2bR) (Homo sapiens (Human), UniProt P29275); test: Inhibition of adenosine A2b receptor cAMP signaling pathway (HTRF cAMP, CHO-K1/A2bR cells); details: Table 3; for IC50: CHO-K1/A2bR cells, ethyl carbazole 1 μM, cAMP HTRF; for IC50 ratio (A2bR/A2aR): selectivity A2bR over A2aR
Source text: as §1, §2
2.4 Adenosine A2b receptor (A2bR)
CHO-K1/A2bR cells were cultured in DMEM/F12 medium containing 10% fetal bovine serum and 1 mg/ml G418. The cells were digested with the cell separation buffer during the experiment. The cells were resuspended in the balanced salt buffer containing 20 mM HEPES and 0.1% bovine serum albumin and counted, and the cell density was adjusted to 10^6 cells/ml. In the 384-well plate, each well was added with 5 μl of cell suspension, and 2.5 μl of test compound (4× concentration) formulated with the balanced salt buffer containing 20 mM HEPES, 0.1% bovine serum albumin, 54 μM rolipram and 2.7 U/ml adenosine deaminase, and the plate was incubated at room temperature for 30 minutes. Each well was then added with 2.5 μl of […] (4× concentration) (Torcis, 1691/10) formulated with the balanced salt buffer containing 20 mM HEPES, 0.1% bovine serum albumin, 54 μM rolipram and 2.7 U/ml adenosine deaminase, and the plate was incubated at room temperature for 30 minutes. The final concentrations of the compounds were: 100000, 10000, 1000, 100, 10, 1, 0.1 and 0 nM. The final concentration of […] was 1 μM. Intracellular cAMP concentration was detected with the cAMP dynamic 2 kit. cAMP-d2 and Anti-cAMP-Eu-Cryptate were diluted respectively with the cAMP lysis buffer at a ratio of 1:4. Each well was added with 5 μl of diluted cAMP-d2, followed by addition of 5 μl of diluted Anti-cAMP-Eu-Cryptate, and the plate was incubated at room temperature in the dark for 1 hour. The HTRF signal values were read by the PHERAstar multi-function microplate reader.

Sequence of adenosine A2a receptor (A2aR) (P29274 whole entry): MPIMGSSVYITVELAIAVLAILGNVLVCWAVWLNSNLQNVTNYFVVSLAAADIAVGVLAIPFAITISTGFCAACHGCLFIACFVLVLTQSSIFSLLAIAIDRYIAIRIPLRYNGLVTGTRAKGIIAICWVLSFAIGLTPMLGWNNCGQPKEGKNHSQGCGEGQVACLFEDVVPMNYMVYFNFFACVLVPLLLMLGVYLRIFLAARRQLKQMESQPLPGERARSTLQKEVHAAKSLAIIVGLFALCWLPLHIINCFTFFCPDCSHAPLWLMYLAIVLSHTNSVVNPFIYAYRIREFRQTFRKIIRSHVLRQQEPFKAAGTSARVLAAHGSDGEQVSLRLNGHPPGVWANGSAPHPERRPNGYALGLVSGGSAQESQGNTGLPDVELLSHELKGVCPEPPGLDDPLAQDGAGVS
Sequence of adenosine A1 receptor (A1R) (P30542 whole entry): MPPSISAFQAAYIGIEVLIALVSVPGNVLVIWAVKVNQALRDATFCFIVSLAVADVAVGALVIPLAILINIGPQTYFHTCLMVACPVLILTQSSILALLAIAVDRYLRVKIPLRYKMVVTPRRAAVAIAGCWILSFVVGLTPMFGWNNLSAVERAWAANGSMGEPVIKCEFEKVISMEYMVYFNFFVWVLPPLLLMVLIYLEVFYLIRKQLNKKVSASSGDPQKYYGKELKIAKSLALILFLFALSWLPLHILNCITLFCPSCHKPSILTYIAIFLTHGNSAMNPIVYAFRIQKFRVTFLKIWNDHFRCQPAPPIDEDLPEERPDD
Sequence of adenosine A2b receptor (A2bR) (P29275 whole entry): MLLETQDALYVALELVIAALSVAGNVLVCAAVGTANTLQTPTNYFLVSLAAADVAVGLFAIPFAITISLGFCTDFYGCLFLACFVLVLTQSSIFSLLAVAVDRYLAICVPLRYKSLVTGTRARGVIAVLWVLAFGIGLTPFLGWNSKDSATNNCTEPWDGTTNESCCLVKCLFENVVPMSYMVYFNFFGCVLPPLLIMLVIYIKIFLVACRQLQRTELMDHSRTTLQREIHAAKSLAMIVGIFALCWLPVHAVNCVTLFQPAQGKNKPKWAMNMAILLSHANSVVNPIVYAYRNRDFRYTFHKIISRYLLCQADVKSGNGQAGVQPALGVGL
Sequence of adenosine A3 receptor (A3R) (P0DMS8 whole entry): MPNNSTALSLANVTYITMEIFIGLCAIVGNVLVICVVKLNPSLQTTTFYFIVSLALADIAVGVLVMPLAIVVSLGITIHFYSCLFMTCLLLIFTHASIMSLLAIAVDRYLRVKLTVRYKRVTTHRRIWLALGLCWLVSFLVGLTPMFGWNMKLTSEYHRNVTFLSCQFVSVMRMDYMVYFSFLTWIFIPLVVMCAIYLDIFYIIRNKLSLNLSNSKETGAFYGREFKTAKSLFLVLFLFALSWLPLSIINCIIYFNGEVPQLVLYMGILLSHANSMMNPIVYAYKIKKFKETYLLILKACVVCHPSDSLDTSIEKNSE

Compound	IC50 [1] [nM]	IC50 ratio (A1R/A2aR) [1]	IC50 ([2]; Table 1, ethyl carbazole 20 nM) [nM]	IC50 ([2]; Table 2, ethyl carbazole 20 nM) [nM]	IC50 ratio (A3R/A2aR) [3]	IC50 [3] [nM]	IC50 ([2]; Table 3, ethyl carbazole 20 nM) [nM]	IC50 [4] [nM]	IC50 ratio (A2bR/A2aR) [4]
Cc1cc(-c2c(-c3ccc(F)cc3)nc(N)n3cnnc23)cc(C(F)F)n1 [Example 51, 8-(2-(Difluoromethyl)-6-methylpyridin-4-yl)-7-(4-fluorophenyl)-[1,2,4]triazolo[4,3-c]pyrimidin-5-amine]	418	1161	0.36	0.36	>10^4	> 10000	–	–	–
Cc1cc(-c2c(-c3ccc(F)cc3)nc(N)n3cnnc23)cc(CF)n1 [Example 55, 8-(2-(Fluoromethyl)-6-methylpyridin-4-yl)-7-(4-fluorophenyl)-[1,2,4]triazolo[4,3-c]pyrimidin-5-amine]	222	214	1.04	1.04	>10^3	> 10000	1.04	78.2	75
Cc1cc(-c2c(-c3ccccc3F)nc(N)n3cnnc23)cc(Cl)n1 [Example 27, 8-(2-Chloro-6-methylpyridin-4-yl)-7-(2-fluorophenyl)-[1,2,4]triazolo[4,3-c]pyrimidin-5-amine]	71	142	0.5	0.5	>2 × 10^4	> 10000	–	–	–
Cc1cc(-c2c(-c3ccc(Cl)cc3)nc(N)n3cnnc23)cc(C(F)F)n1 [Example 52, 7-(4-Chlorophenyl)-8-(2-(difluoromethyl)-6-methylpyridin-4-yl)-[1,2,4]triazolo[4,3-c]pyrimidin-5-amine]	41	85	0.48	0.48	>10^4	> 10000	–	–	–
Nc1nc(-c2ccccc2)c(-c2ccc3[nH]ncc3c2)c2nncn12 [Example 10, 8-(1H-indazol-5-yl)-7-phenyl-[1,2,4]triazolo[4,3-c]pyrimidin-5-amine]	–	–	0.26	–	–	–	0.26	91	350
Cc1cc(-c2c(-c3ccc(F)cc3)nc(N)n3cnnc23)cc(C)n1 [Example 28, 8-(2,6-Dimethylpyridin-4-yl)-7-(4-fluorophenyl)-[1,2,4]triazolo[4,3-c]pyrimidin-5-amine]	66	127	0.52	0.52	>1.9 × 10^4	> 10000	–	–	–
Cc1cc(-c2c(-c3ccc(F)cc3F)nc(N)n3cnnc23)cc(Cl)n1 [Example 34, 8-(2-Chloro-6-methylpyridin-4-yl)-7-(2,4-difluorophenyl)-[1,2,4]triazolo[4,3-c]pyrimidin-5-amine]	–	–	2.04	–	–	–	2.04	170	83

Now those with a lower IC50 ([2]; Table 1, ethyl carbazole 20 nM), led by results:

IC50 [1] [nM]	IC50 ratio (A1R/A2aR) [1]	IC50 ([2]; Table 1, ethyl carbazole 20 nM) [nM]	IC50 ([2]; Table 2, ethyl carbazole 20 nM) [nM]	IC50 ratio (A3R/A2aR) [3]	IC50 [3] [nM]	IC50 ([2]; Table 3, ethyl carbazole 20 nM) [nM]	IC50 [4] [nM]	IC50 ratio (A2bR/A2aR) [4]	Compound
–	–	0.17	–	–	–	0.17	98.9	582	Cc1cc(-c2c(-c3ccc(F)cc3)nc(N)n3cnnc23)cc(Cl)n1 [Example 15, 8-(2-Chloro-6-methylpyridin-4-yl)-7-(4-fluorophenyl)-[1,2,4]triazolo[4,3-c]pyrimidin-5-amine]
16	100	0.16	0.16	3.1 × 10^4	5000	–	–	–	Nc1nc(-c2ccccc2)c(-c2cc(F)c3ncccc3c2)c2nncn12 [Example 7, 8-(8-Fluoroquinolin-6-yl)-7-phenyl-[1,2,4]triazolo[4,3-c]pyrimidin-5-amine]
102	680	0.15	0.15	>6.7 × 10^4	> 10000	–	–	–	Cc1cc(-c2c(-c3ccccc3)nc(N)n3cnnc23)cc(C)n1 [Example 11, 8-(2,6-Dimethylpyridin-4-yl)-7-phenyl-[1,2,4]triazolo[4,3-c]pyrimidin-5-amine]
12	133	0.09	0.09	1.5 × 10^4	1400	–	–	–	Cc1cc(-c2c(-c3ccccc3)nc(N)n3cnnc23)cc2cccnc12 [Example 5, 8-(8-Methylquinolin-6-yl)-7-phenyl-[1,2,4]triazolo[4,3-c]pyrimidin-5-amine]
18	257	0.07	0.07	2.9 × 10^4	2000	–	–	–	Nc1nc(-c2ccccc2)c(-c2ccc3ncccc3c2)c2nncn12 [Example 3, 7-Phenyl-8-(quinolin-6-yl)-[1,2,4]triazolo[4,3-c]pyrimidin-5-amine]
